Test [1] concerns the target T1, COX-2 (Mus musculus, UniProt Q05769).
T1 sequence (Q05769 18-604): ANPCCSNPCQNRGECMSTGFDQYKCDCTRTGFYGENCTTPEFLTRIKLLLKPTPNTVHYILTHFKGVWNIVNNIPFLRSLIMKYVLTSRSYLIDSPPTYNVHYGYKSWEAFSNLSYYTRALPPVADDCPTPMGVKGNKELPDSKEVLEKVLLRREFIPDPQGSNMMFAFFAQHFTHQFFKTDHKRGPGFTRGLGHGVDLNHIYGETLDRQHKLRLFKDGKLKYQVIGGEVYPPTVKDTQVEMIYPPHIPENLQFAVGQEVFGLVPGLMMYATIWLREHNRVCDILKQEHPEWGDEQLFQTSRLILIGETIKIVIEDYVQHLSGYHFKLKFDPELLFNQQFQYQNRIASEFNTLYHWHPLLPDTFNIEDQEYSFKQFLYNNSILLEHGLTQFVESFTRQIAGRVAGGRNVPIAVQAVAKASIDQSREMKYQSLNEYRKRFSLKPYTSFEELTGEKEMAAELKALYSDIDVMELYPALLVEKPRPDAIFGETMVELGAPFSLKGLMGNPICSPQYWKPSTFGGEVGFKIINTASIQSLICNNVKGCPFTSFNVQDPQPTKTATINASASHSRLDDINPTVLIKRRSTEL
The experiment in a line: Inhibition of COX-2 oxygenation by acetaminophen and its metabolites. It counts as biochemical.

The target of test [2] is T2, COX-2 in lipopolysaccharide-activated RAW264.7 cells (Mus musculus, UniProt Q05769).
T2 construct: endogenous in cells; host or cells: RAW 264.7 macrophages stimulated with LPS (and GM-CSF / interferon γ where described)
T2 sequence (Q05769 18-604): T1 sequence (Q05769 18-604)
The experiment in a line: 2-AG oxygenation by lipopolysaccharide-activated RAW264.7 cells. It counts as cell-based.

Test [3] concerns the target COX-2 in dorsal root ganglion cells (DRGs) (Mus musculus, UniProt Q05769). The method, then:
Treatment with inflammatory stimuli was performed as described herein below.
DRGs were harvested from E14 mouse embryos and plated onto collagen-coated dishes. After being cultured for 3-5 days, they were treated overnight with granulocyte-macrophage colony-stimulating factor followed by lipopolysaccharide, interferon γ, and 10 μM 15(S)-hydroxy-5,8,11,13-eicosatetraenoic acid for 6 hours.
DRGs, activated as above for 3 hours were treated with ionomycin for an additional 3 hours to stimulate substrate release.
The amounts of prostaglandin, PG-G, and PG-EA were quantified using stable-isotope dilution methods with labeled internal standards.

The target of test [4] is T3, purified murine COX-2 (Mus musculus, UniProt Q05769).
T3 sequence (Q05769 18-604): T1 sequence (Q05769 18-604)
Conditions: chiral profens; at 10 μM inhibitor; data taken from reference 10; cited from earlier work.

Structures are written as SMILES.

As usually defined, the IC50 is the concentration needed to halve the response being measured. As for `CCCCC/C=C\C/C=C\C/C=C\C/C=C\CCCC(=O)Nc1ccc(O)cc1` [AM-404, N-(4-hydroxyphenyl)arachidonoylamide], in test [1], the “Selectivity for inhibition of 2-AG and AEA oxygenation compared to AA oxygenation” value turned out to be 700 fold. Moreover, the figures for the “Dissociation from COX-2” value in test [1] (in the absence of substrate) and in test [1] (in the presence of AA) were “slow” and “rapid”, respectively. Further, the IC50 in test [1] (read-out: IC50 for inhibition of 2-AG oxygenation) came out at 97 nM; in test [2], 46 nM.

On to `COc1ccc2cc([C@@H](C)C(=O)O)ccc2c1` [Compound 7b, (R)-naproxen], for which, in test [3] (at concentrations that inhibited PG-G and PG-EA synthesis), the “Synthesis of prostaglandins in DRGs” value is “did not inhibit”. Also, in test [3] (stimulated DRGs), the “Amounts of AEA and 2-AG in cell extracts” value is given as “increased”. The “% Inhibition AA” value in test [4] is given as 0%.
